We go through 16 molecules from ChEMBL document CHEMBL3785058, “Design and synthesis of novel 3-sulfonylpyrazol-4-amino pyrimidines as potent anaplastic lymphoma kinase (ALK) inhibitors” (Bioorg Med Chem Lett, 2016).

SMILES strings stand for the structures. Bounds are passed on as bounds.

Assay [1] concerns the target ALK tyrosine kinase receptor (Homo sapiens, UniProt Q9UM73). As to the kind of experiment: Inhibition of recombinant human wild type ALK using tyrosine kinase substrate-biotin after 30 mins by HTRF assay.
Assay [2] in a line: Antiproliferative activity against human KARPAS299 cells after 96 hrs by CellTiter-Glo assay. The assay is classed as functional, cell-based. Conditions: KARPAS-299, 96 h.
Assay [3] concerns the target ALK tyrosine kinase receptor (Homo sapiens, UniProt Q9UM73, L1196M). Nature of the assay: Inhibition of recombinant human ALK L1196M mutant using tyrosine kinase substrate-biotin after 30 mins by HTRF assay.
The nature of assay [4]: Ratio of IC50 for human ERG to IC50 for human NCI-H2228 cells.
Another assay relates to NCI-H2228. As to the kind of experiment: Antiproliferative activity against human NCI-H2228 cells after 96 hrs by CellTiter-Glo assay. Conditions: NCI-H2228, 96 h. Type of assay: functional, cell-based.

Sequence of ALK tyrosine kinase receptor (Homo sapiens, UniProt Q9UM73, L1196M) (Q9UM73 19-1620 L1196M limits assumed): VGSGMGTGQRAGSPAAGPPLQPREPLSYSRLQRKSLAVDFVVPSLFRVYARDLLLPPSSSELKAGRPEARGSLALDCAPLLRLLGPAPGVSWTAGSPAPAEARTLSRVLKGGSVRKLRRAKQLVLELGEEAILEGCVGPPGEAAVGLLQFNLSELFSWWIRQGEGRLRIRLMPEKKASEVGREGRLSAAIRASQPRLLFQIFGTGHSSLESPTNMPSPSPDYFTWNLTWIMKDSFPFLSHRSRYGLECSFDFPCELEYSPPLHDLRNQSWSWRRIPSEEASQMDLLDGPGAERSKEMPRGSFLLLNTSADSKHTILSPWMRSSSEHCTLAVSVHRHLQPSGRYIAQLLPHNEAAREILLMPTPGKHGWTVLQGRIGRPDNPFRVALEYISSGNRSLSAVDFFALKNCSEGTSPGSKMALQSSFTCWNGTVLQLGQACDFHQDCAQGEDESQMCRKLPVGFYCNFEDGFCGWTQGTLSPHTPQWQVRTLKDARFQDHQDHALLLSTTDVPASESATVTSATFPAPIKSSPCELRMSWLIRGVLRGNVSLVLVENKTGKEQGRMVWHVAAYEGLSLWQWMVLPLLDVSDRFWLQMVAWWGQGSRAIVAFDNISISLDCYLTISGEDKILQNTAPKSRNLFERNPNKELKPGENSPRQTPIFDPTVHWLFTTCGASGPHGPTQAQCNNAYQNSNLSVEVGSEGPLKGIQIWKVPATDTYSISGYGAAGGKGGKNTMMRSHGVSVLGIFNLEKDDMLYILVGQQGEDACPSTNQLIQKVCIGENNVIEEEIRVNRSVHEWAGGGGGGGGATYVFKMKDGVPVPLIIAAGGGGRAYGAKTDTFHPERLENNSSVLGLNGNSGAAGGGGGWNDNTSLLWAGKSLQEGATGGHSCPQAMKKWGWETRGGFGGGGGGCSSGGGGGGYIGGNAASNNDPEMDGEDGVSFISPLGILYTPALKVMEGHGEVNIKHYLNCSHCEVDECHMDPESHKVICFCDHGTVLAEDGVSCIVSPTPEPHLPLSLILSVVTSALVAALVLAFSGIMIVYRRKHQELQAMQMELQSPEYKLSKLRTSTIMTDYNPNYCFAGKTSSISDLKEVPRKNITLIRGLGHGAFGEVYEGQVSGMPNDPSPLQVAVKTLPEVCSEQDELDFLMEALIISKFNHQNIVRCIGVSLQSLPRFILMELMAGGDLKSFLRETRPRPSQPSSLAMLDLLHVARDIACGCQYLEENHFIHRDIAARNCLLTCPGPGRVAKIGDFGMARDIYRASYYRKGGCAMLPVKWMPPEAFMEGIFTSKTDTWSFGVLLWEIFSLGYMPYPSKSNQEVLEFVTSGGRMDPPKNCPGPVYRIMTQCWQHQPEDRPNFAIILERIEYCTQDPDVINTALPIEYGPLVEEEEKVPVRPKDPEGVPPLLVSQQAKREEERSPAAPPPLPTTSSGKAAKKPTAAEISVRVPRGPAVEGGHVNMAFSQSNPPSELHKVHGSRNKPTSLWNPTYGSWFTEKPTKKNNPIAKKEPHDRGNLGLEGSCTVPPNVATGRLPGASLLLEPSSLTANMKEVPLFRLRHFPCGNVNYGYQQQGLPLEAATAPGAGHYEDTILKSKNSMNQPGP
Sequence of ALK tyrosine kinase receptor (Homo sapiens, UniProt Q9UM73) (Q9UM73 whole entry): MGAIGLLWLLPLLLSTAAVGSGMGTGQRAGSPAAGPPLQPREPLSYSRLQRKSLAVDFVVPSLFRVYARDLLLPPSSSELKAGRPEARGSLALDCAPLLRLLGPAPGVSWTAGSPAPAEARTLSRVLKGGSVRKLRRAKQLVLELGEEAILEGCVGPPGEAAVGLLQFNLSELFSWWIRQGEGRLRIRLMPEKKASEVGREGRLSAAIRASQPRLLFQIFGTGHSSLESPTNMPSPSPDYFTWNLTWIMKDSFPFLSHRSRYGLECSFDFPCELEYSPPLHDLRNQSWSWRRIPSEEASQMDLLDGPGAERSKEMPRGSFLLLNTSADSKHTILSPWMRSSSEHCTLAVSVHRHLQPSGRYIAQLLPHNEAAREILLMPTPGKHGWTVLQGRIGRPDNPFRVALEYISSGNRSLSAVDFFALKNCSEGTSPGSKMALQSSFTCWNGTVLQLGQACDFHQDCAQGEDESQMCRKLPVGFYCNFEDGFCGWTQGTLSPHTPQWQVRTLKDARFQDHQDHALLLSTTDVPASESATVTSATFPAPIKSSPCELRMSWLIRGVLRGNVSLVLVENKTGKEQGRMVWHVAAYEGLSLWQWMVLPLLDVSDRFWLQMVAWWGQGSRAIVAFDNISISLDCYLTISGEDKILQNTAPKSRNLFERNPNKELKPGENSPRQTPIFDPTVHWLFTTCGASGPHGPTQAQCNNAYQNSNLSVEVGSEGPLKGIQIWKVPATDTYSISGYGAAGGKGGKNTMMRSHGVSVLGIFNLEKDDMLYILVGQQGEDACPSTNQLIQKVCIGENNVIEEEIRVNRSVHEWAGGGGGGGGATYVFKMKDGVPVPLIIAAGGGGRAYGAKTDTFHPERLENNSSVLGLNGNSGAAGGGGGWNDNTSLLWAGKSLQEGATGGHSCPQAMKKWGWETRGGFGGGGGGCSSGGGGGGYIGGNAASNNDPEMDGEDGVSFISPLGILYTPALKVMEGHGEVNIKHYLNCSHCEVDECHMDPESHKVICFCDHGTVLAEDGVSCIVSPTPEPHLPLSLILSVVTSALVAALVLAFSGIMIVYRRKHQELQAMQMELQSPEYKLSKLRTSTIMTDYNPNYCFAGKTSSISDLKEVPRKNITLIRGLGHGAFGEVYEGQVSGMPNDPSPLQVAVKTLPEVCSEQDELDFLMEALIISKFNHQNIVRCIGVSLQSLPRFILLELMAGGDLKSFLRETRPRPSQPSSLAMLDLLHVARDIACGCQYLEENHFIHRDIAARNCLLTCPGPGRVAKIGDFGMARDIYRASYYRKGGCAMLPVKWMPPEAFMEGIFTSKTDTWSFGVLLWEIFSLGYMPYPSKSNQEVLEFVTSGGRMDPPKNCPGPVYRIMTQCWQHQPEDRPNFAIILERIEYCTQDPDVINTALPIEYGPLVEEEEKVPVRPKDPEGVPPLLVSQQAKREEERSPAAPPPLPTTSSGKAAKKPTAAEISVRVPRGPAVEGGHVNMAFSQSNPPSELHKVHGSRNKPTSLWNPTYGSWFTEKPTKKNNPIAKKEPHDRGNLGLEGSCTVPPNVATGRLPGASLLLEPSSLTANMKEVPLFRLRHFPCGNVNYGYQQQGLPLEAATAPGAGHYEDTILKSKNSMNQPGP

Consider `Cc1cc(Nc2ncc(Cl)c(Nc3cn(C)nc3S(C)(=O)=O)n2)c(OC(C)C)cc1C1CCNCC1`, for which the IC50 in assay [1] came out at 56 nM; in assay [2], 288 nM; in assay [3], 94 nM.
As for `Cc1cc(Nc2ncc(Cl)c(Nc3cn(C)nc3S(=O)(=O)C(C)C)n2)c(OC2CC2)cc1C1CCS(=O)(=O)CC1`, the IC50 was found to be 3 nM in assay [1], 97 nM in the assay with NCI-H2228 and 9 nM in assay [3]. Besides, the “Ratio IC50” value in assay [4] amounted to 206.
`Cc1cc(Nc2ncc(Cl)c(Nc3cn(C)nc3S(=O)(=O)C(C)C)n2)c(OC2CC2)cc1[C@H]1CC[C@H](NC(=O)C2CC2)CC1`: in the assay on NCI-H2228, half-maximal inhibition (IC50) required 154 nM.
For the molecule `CCN(CC)[C@H]1CC[C@H](c2cc(OC3CC3)c(Nc3ncc(Cl)c(Nc4cn(C)nc4S(=O)(=O)C(C)C)n3)cc2C)CC1`, in the assay with NCI-H2228, the IC50 was determined as 68 nM.
`Cc1nc(S(=O)(=O)C(C)C)c(Nc2nc(Nc3cc(C)c(C4CCN(C)CC4)cc3OC3CC3)ncc2Cl)s1` had an IC50 in the assay with NCI-H2228 of 150 nM.
Turning to `Cc1cc(Nc2ncc(Cl)c(Nc3cn(C)nc3S(=O)(=O)C(C)C)n2)c(OC2CC2)cc1C1CCC(N2CCN(C)CC2)CC1` (mixture of isomers), in assay [4], the “Ratio IC50” value amounted to 6. For the same molecule, the IC50 in the assay with NCI-H2228 was 141 nM.
Turning to `Cc1cc(Nc2ncc(Cl)c(Nc3cn(C)nc3S(=O)(=O)C(C)C)n2)c(OC2CC2)cc1[C@H]1CC[C@H](NS(C)(=O)=O)CC1`, the IC50 in assay [1] came to 16 nM; in the assay with NCI-H2228 it was 151 nM; in assay [2], 18 nM; in assay [3], 20 nM.
Regarding `CCn1cc(Nc2nc(Nc3cc(C)c(C4CCNCC4)cc3OC(C)C)ncc2Cl)c(S(=O)(=O)C(C)C)n1`, the IC50 in assay [1] came out at 20 nM; in the assay with NCI-H2228 it was 764 nM; in assay [2] it was 68 nM; in assay [3], 28 nM.
For the molecule `Cc1cc(Nc2ncc(C)c(Nc3cn(C)nc3S(=O)(=O)C(C)C)n2)c(OC2CC2)cc1C1CCN(C)CC1`, half-maximal inhibition in the assay on NCI-H2228 (IC50) required 69 nM.
As for `Cc1cc(Nc2ncc(Cl)c(Nc3cn(C)nc3S(=O)(=O)C(C)C)n2)c(OC2CC2)cc1[C@H]1CC[C@@H](NC(C)C)CC1`, the IC50 turned out to be 5 nM in assay [1], 72 nM with NCI-H2228 and 10 nM in assay [3]. For the same molecule, the “Ratio IC50” value in assay [4] worked out at 15.
Consider `Cc1cc(Nc2ncc(Cl)c(Nc3cn(C)nc3S(=O)(=O)C3CC3)n2)c(OC(C)C)cc1C1CCNCC1`, for which the IC50 was 400 nM in assay [1], greater than 10000 nM in the assay with NCI-H2228, greater than 10000 nM in assay [2] and greater than 10000 nM in assay [3].
For `Cc1cc(Nc2ncc(Cl)c(Nc3cn(C)nc3S(=O)(=O)C(C)C)n2)c(OC2CC2)cc1[C@H]1CC[C@@H](NC2CC2)CC1`, the IC50 in assay [1] is 8 nM; in the assay with NCI-H2228, 116 nM; in assay [3] it was 20 nM. Also, the “Ratio IC50” value in assay [4] is given as 15.
As to `Cc1cc(Nc2ncc(Cl)c(Nc3c[nH]nc3S(=O)(=O)C(C)C)n2)c(OC(C)C)cc1C1CCNCC1`, the IC50 in assay [1] is 22 nM; in assay [2], 1250 nM; in assay [3], 28 nM.
For `Cc1nc(Nc2nc(Nc3cc(C)c(C4CCN(C)CC4)cc3OC3CC3)ncc2Cl)c(S(=O)(=O)C(C)C)s1`, the IC50 in assay [1] was found to be 3 nM; in the assay on NCI-H2228, 490 nM; in assay [3], 19 nM.
Turning to `Cc1cc(Nc2ncc(Cl)c(Nc3cn(C)nc3S(=O)(=O)C(C)C)n2)c(OC2CC2)cc1[C@H]1CC[C@H](NCCN(C)C)CC1`, the IC50 in the assay with NCI-H2228 turned out to be 210 nM.
Take `Cc1cc(Nc2ncc(Cl)c(Nc3cn(C)nc3S(=O)(=O)C(C)C)n2)c(OC2CC2)cc1[C@H]1CC[C@H](NC2CC2)CC1`: the “Ratio IC50” value in assay [4] is recorded as 23. The IC50 in the assay on NCI-H2228 was 88 nM; in assay [2] it was 9 nM.
